Experimental findings from patent EP0877020A1, “ACRIDONE DERIVATIVE” (Eisai Co., Ltd., priority 1995, dated 1997) are described below.

Where two headings read alike, the source gives them in different places.

One test concerns TNFα. As to the kind of experiment: Repression of formation and liberation of TNFα (bioassay). It counts as cell-based, rat. The settings on record: at the same concentration (12 µM).
Another test concerns RBL-2H3 cells. As to the kind of experiment: Repression of liberation of mediators (serotonin, histamine, arachidonic acid) from RBL-2H3 cells. It counts as cell-based, rat. The text has this: [Study on activity to repress the liberation of various mediators from rat basophilic leukemic cell strain (RBL-2H3) and activity to repress thyrosine kinase]
The cells of RBL-2H3, one species of rat cell line, carry out not only the liberation of histamine and serotonin but also the formation and liberation of prostaglandins, TNFα, etc., i.e. inflammatory mediators, owing to the specific antigen of the IgE antibody bound to the IgE receptor. In the present test system, therefore, the cells were marked with serotonin and arachidonic acid labeled in advance with [^3H] and cultured in the presence of a compound under test and in the absence thereof and the amounts of the mediators liberated in the culture medium were measured. Thus, the given compounds were tested for activity to repress the liberation of various mediators. The TNFα was determined by means of bioassay.

Another test concerns Jurkat cells (T-cells). As to the kind of experiment: Thyrosine kinase selectivity in Jurkat cells (antigenic stimulus). It counts as cell-based.
The subject of the next test is phospholipase C. As to the kind of experiment: Repression of activation of phospholipase C, intracellular substrate of the thyrosine kinase. It counts as cell-based. The settings on record: at the same concentration (12 µM).
The mark [1] stands for this setting: Rattus norvegicus, RBL-2H3 cells, [3H]-labelled serotonin, read-out: IC50 (µM) in liberation of serotonin from RBL-2H3 cells.

In the case of `Cc1ccc2c(=O)c3ccccc3n(CCCN)c2c1C.O=C(O)C(=O)O` [Example 3, 3,4-Dimethyl-10-(3-aminopropyl)-9-acridone oxalate], in the test with TNFα, the “formation and liberation of TNFα” value is recorded as “repressed”. Moreover, the IC50 with RBL-2H3 cells (Rattus norvegicus, RBL-2H3, due to the antigenic stimulus, read-out: IC50 value, liberation of arachidonic acid from the RBL-2H3 cells) amounted to 12 µM; in the test on RBL-2H3 cells (Rattus norvegicus, RBL-2H3, due to the antigenic stimulus, read-out: IC50 value, liberation of histamine from the RBL-2H3 cells), 12 µM; in the test on RBL-2H3 cells (Rattus norvegicus, RBL-2H3, due to the antigenic stimulus, read-out: IC50 value, liberation of serotonin from the RBL-2H3 cells), 12 µM. Moreover, in the test with Jurkat cells (T-cells) (Jurkat cells), the “activity to repress the antigenic stimulus in the Jurkat cells” value was “absolutely no activity”. The “activity to repress such thyrosine kinases as p561ck and fyn” value with Jurkat cells (T-cells) (concluded from the Jurkat cell test) was “no activity”. In the test with phospholipase C, the “activation of phospholipase C” value is recorded as “repressed”.

`Cc1c(F)cc2c(=O)c3ccccc3n(CCCN)c2c1C` [Example 1, 2-Fluoro-3,4-dimethyl-10-(3-aminopropyl)-9-acridone]: the IC50 in the test on RBL-2H3 cells (setting [1]) is 1.7 µM.

`Cc1ccc2c(=O)c3ccccc3n(CCCNCc3ccccc3)c2c1C` [Example 19, 3,4-Dimethyl-10-(3-benzylaminopropyl)-9-acridone]: the IC50 in the test on RBL-2H3 cells (setting [1]) stood at 3 µM.

As to `Cc1ccc2c(=O)c3ccccc3n(CCCN)c2c1C` [Example 2, 3,4-Dimethyl-10-(3-aminopropyl)-9-acridone], in the test on RBL-2H3 cells (Rattus norvegicus, RBL-2H3, RBL-2H3 cells, [3H]-labelled serotonin, read-out: IC50 (µM) in liberation of serotonin from RBL-2H3 cells), the IC50 was determined as 6 µM.

For “3,4-Dimethyl-10-[3-(2-imidazoylmethyl)aminopropyl]-9 acridone [Example 32]”, the IC50 in the test with RBL-2H3 cells (RBL-2H3 cells, [3H]-labelled serotonin, read-out: IC50 (µM) in liberation of serotonin from RBL-2H3 cells) worked out at 0.6 µM.
